Measurements taken from US8912121B2, “Herbicidal compositions comprising 4-amino-3-chloro-5-fluoro-6-(4-chloro-2-fluoro-3-methoxyphenyl)pyridine-2-carboxylic acid or a derivative thereof and certain PS II inhibitors” (Dow Agrosciences LLC, priority 2012, dated 2014).
Read-outs that look alike come from different tables or passages of the source.

Key:
[1] = tested on: ECHCG (Echinochloa crusgalli, barnyardgrass); experiment: In-water applied mixtures, transplanted paddy rice, greenhouse; assay type: in vivo, Echinochloa crusgalli (L.) Beauv.; conditions: 21 DAA
Protocol: Weed seeds or nutlets of the desired test plant species were planted in puddled soil (mud) prepared by mixing a shredded, non-sterilized mineral soil (50.5 percent silt, 25.5 percent clay, and 24 percent sand, with a pH of about 7.6 and an organic matter content of about 2.9 percent) and water at a 1:1 volumetric ratio. The prepared mud was dispensed in 365 mL aliquots into 16-ounce (oz.) non-perforated plastic pots with a surface area of 86.59 square centimeters (cm^2) leaving a headspace of 3 centimeters (cm) in each pot Mud was allowed to dry overnight prior to planting or transplanting. Rice seeds were planted in Sun Gro MetroMix® 306 planting mixture, which typically has a pH of 6.0 to 6.8 and an organic matter content of about 30 percent, in plastic plug trays. Seedlings at the second or third leaf stage of growth were transplanted into 840 mL of mud contained in 32-oz. non-perforated plastic pots with a surface area of 86.59 cm^2 4 days prior to herbicide application. The paddy was created by filling the headspace of the pots with 2.5 to 3 cm of water. When required to ensure good germination and healthy plants, a fungicide treatment and/or other chemical or physical treatment was applied. The plants were grown for 4-22 days in a greenhouse with an approximate 14 h photoperiod which was maintained at about 29° C during the day and 26° C. during the night. Nutrients were added as Osmocote® (19:6:12, N:P:K+ minor nutrients) at 2 g per 16-oz. pot and 4 g per 32-oz. pot. Water was added on a regular basis to maintain the paddy flood, and supplemental lighting was provided with overhead metal halide 1000-Watt lamps as necessary. The plants were employed for testing when they reached the first through fourth true leaf stage. […]
(§1) Treatment requirements for each compound or herbicidal component were calculated based upon the rates being tested, the concentration of active ingredient or acid equivalent in the formulation, an application volume of 2 mL per component per pot, and an application area of 86.59 cm^2 per pot.
For formulated compounds, a measured amount was placed in an individual 100 or 200 mL glass vial and was dissolved in a volume of 1.25% (v/v) Agri-Dex® crop oil concentrate to obtain application solutions. […]
(§2) The treated plants and control plants were placed in a greenhouse as described above and water was added as needed to maintain a paddy flood. After approximately 3 weeks the condition of the test plants as compared with that of the untreated plants was determined visually and scored on a scale of 0 to 100 percent where 0 corresponds to no injury or growth inhibition and 100 corresponds to complete kill. […]

[2] = tested on: LEFCH (Leptochloa chinensis, Chinese sprangletop); experiment: as above; assay type: in vivo, Leptochloa chinensis (L.) Nees
Protocol: (§3) Weed seeds or nutlets of the desired test plant species were planted in puddled soil (mud) prepared by mixing a shredded, non-sterilized mineral soil (50.5 percent silt, 25.5 percent clay, and 24 percent sand, with a pH of about 7.6 and an organic matter content of about 2.9 percent) and water at a 1:1 volumetric ratio. The prepared mud was dispensed in 365 mL aliquots into 16-ounce (oz.) non-perforated plastic pots with a surface area of 86.59 square centimeters (cm^2) leaving a headspace of 3 centimeters (cm) in each pot Mud was allowed to dry overnight prior to planting or transplanting. Rice seeds were planted in Sun Gro MetroMix® 306 planting mixture, which typically has a pH of 6.0 to 6.8 and an organic matter content of about 30 percent, in plastic plug trays. Seedlings at the second or third leaf stage of growth were transplanted into 840 mL of mud contained in 32-oz. non-perforated plastic pots with a surface area of 86.59 cm^2 4 days prior to herbicide application. The paddy was created by filling the headspace of the pots with 2.5 to 3 cm of water. When required to ensure good germination and healthy plants, a fungicide treatment and/or other chemical or physical treatment was applied. The plants were grown for 4-22 days in a greenhouse with an approximate 14 h photoperiod which was maintained at about 29° C during the day and 26° C. during the night. Nutrients were added as Osmocote® (19:6:12, N:P:K+ minor nutrients) at 2 g per 16-oz. pot and 4 g per 32-oz. pot. Water was added on a regular basis to maintain the paddy flood, and supplemental lighting was provided with overhead metal halide 1000-Watt lamps as necessary. The plants were employed for testing when they reached the first through fourth true leaf stage.
(§4) Treatments consisted of the acid or esters of 4-amino-3-chloro-5-fluoro-6-(4-chloro-2-fluoro-3-methoxy-phenyl)pyridine-2-carboxylic acid (compound A) each formulated as an SC (suspension concentrate) and various herbicidal components alone and in combination. Forms of compound A were applied on an acid equivalent basis.
(§5) Other herbicidal components were applied on an active ingredient basis and included photosystem II (PSII)-inhibits propanil formulated as […] bentazon-sodium formulated as Basagran®, and simetryne (technical grade material).
as §1
(§6) For formulated compounds, a measured amount was placed in an individual 100 or 200 mL glass vial and was dissolved in a volume of 1.25% (v/v) Agri-Dex® crop oil concentrate to obtain application solutions.
(§7) For technical grade compounds, a weighed amount was placed in an individual 100 to 200 mL glass vial and was dissolved in a volume of acetone to obtain concentrated stock solutions. […] The concentrated stock solutions obtained were diluted with an equivalent volume of an aqueous mixture containing 2.5% (v/v) crop oil concentrate so that the final application solutions contained 1.25% (v/v) crop oil concentrate.
(§8) Applications were made by injecting with a pipetter appropriate amounts of the application solutions, individually and sequentially, into the aqueous layer of the paddy. Control plants were treated in the same manner with the solvent blank. Applications were made so that all treated plant material received the same concentrations of acetone and crop oil concentrate.
as §2

[3] = tested on: ECHOR (Echinochloa oryzoides, early watergrass); experiment: as above; assay type: in vivo, Echinochloa oryzoides (Ard.) Fritsch
Protocol: as §3, §4, §5, §1, §6, §7, §8, §2

[4] = tested on: IPOHE (Ipomoea hederacea, ivyleaf morningglory); experiment: Postemergence foliar-applied mixtures, direct seeded rice, greenhouse; assay type: in vivo, Ipomoea hederacea Jacq.; conditions: post-emergence, read-out: Visual Weed Control (%) Obs
Source text: (§9) Seeds or nutlets of the desired test plant species were planted in a soil matrix prepared by mixing a loam or sandy loam soil (e.g., 28.6 percent silt, 18.8 percent clay, and 52.6 percent sand, with a pH of about 5.8 and an organic matter content of about 1.8 percent) and calcareous grit in an 80 to 20 ratio. The soil matrix was contained in plastic pots with a volume of 1 quart and a surface area of 83.6 square centimeters (cm^2). When required to ensure good germination and healthy plants, a fungicide treatment and/or other chemical or physical treatment was applied. The plants were grown for 8-22 days in a greenhouse with an approximate 14 h photoperiod which was maintained at about 29° C. during the day and 26° C. during the night. Nutrients (Peters Excel® 15-5-15 5-Ca 2-Mg and iron chelate) were applied in the irrigation solution as needed and water was added on a regular basis. Supplemental lighting was provided with overhead metal halide 1000-Watt lamps as necessary. The plants were employed for testing when they reached the first through fourth true leaf stage.
(§10) Treatments consisted of the acid or esters of 4-amino-3-chloro-5-fluoro-6-(4-chloro-2-fluoro-3-methoxy-phenyl) pyridine-2-carboxylic acid (Compound A), each formulated as an SC (suspension concentrate), and various herbicidal components alone and in combination. Forms of compound A were applied on an acid equivalent basis.
(§11) Other herbicidal components were applied on an active ingredient basis and included Photosystem II (PSII)-inhibiting herbicides propanil formulated as Stam® M4 EC, bentazon-sodium formulated as Basagran®, atrazine formulated as Atrazine 90 WDG, bromoxynil octanoate ester formulated as Buctril®, simetryne (technical grade material), simazine formulated as Princep® Caliber 90, ioxynil (technical grade material), cyanazine (technical grade material), and hexazinone (technical grade material).
(§12) Treatment requirements were calculated based upon the rates being tested, the concentration of active ingredient or acid equivalent in the formulation, and a 12 mL application volume at a rate of 187 L/ha.
(§13) For treatments comprised of formulated compounds, measured amounts of compounds were placed individually in 25 mL glass vials and diluted in a volume of 1.25% (v/v) Agri-Dex® crop oil concentrated to obtain 12× stock solutions. […] Application solutions were prepared by adding an appropriate amount of each stock solution (e.g., 1 mL) and diluted to the appropriate final concentrations with the addition of 10 mL of an aqueous mixture of 1.25% (v/v) crop oil concentrate so that the final spray solutions contained 1.25+/−0.05% (v/v) crop oil concentrate.
(§14) For treatments comprised of technical compounds, weighed amounts can be placed individually in 25 mL glass vials and dissolved in a volume of 97:3 v/v acetone/DMSO to obtain 12× stock solutions. […] Application solutions can be prepared by adding an appropriate amount of each stock solution (e.g., 1 mL) and diluted to the appropriate final concentrations with the addition of 10 mL of an aqueous mixture of 1.5% (v/v) crop oil concentrate so that the final spray solutions contain 1.25% (v/v) crop oil concentrate. When technical materials are used, the concentrated stock solutions can be added to the spray solutions so that the final acetone and DMSO concentrations of the application solutions are 16.2% and 0.5%, respectively.
(§15) For treatments comprised of formulated and technical compounds, weighed amounts of the technical materials were placed individually in 25 mL glass vials and dissolved in a volume of 97:3 v/v acetone/DMSO to obtain 12× stock solutions, and measured amounts of the formulated compounds were placed individually in 25 mL glass vials and diluted in a volume of 1.5% (v/v) crop oil concentrate or water to obtain 12× stock solutions. […]

[5] = tested on: SCPMA (Schoenoplectus maritimus, sea clubrush); experiment: In-water applied mixtures, transplanted paddy rice, greenhouse; assay type: in vivo, Schoenoplectus maritimus (L.) Lye; conditions: 1120 g ae/ha; 20 DAA
Protocol: as §3, §4, §5, §1, §6, §7, §8, §2

[6] = tested on: COMBE (Commelina benghalensis, Benghal dayflower); experiment: Postemergence foliar-applied mixtures, direct seeded rice, greenhouse; assay type: in vivo, Commelina benghalensis L.; conditions: 280 g ai/ha; 20 DAA
Source text: as §9, with “stage. […]” for “stage.”
as §12
(§16) For treatments comprised of formulated compounds, measured amounts of compounds were placed individually in 25 mL glass vials and diluted in a volume of 1.25% (v/v) Agri-Dex® crop oil concentrated to obtain 12× stock solutions. […]
as §15

[7] = tested on: CYPIR (Cyperus iria, rice flatsedge); experiment: as above; assay type: in vivo, Cyperus iria L.; conditions: 22 DAA
Source text: as §9, §10, §11, §12, §13, §14, §15

[8] = tested on: FIMMI (Fimbristylis miliacea, globe fringerush); experiment: In-water applied mixtures, transplanted paddy rice, greenhouse; assay type: in vivo, Fimbristylis miliacea (L.) Vahl; conditions: 19 DAA
Protocol: as §3, §4, §5, §1, §6
For technical grade compounds, a weighed amount was placed in an individual 100 to 200 mL glass vial and was dissolved in a volume of acetone to obtain concentrated stock solutions. […]
as §2

[9] = tested on: LEFCH (Leptochloa chinensis, Chinese sprangletop); experiment: Postemergence foliar-applied mixtures, direct seeded rice, greenhouse; assay type: in vivo, Leptochloa chinensis (L.) Nees; conditions: 225 g ai/ha; 22 DAA
Source text: as §9, with “stage. […]” for “stage.”
as §12, §16, §15

[10] = tested on: CYPRO (Cyperus rotundus, purple nutsedge); experiment: In-water applied mixtures, transplanted paddy rice, greenhouse; assay type: in vivo, Cyperus rotundus L.; conditions: 19 DAA
Protocol: as §3, §4, §5, §1, §6, §7, §8, §2

[11] = tested on: ECHCO (Echinochloa colona, junglerice); experiment: Postemergence foliar-applied mixtures, direct seeded rice, greenhouse; assay type: in vivo, Echinochloa colona (L.) Link; conditions: 450 g ai/ha; 21 DAA
Source text: as §9, §10, §11, §12, §13, §14, §15

Structure (SMILES): CC(C)N1C(=O)c2ccccc2NS1(=O)=O [Bentazon-sodium, 3-(1-methylethyl)-1H-2,1,3-benzothiadiazin-4(3H)-one 2,2-dioxide, reference compound]
- Visual Weed Control (%) Obs ([1]; 420 g ae/ha): 0%
- Visual Weed Control (%) Obs ([1]; 840 g ae/ha): 0%
- Visual Weed Control (%) Obs ([2]; 420 g ae/ha, 21 DAA): 0%
- Visual Weed Control (%) Obs ([2]; 840 g ae/ha, 21 DAA): 0%
- Visual Weed Control (%) Obs ([2]; 1120 g ae/ha, 20 DAA): 0%
- Visual Weed Control (%) Obs ([3]; 1120 g ae/ha, 20 DAA): 0%
- pest or weed control at 840 g/ha ([4]; 480 h, 840 g ae/ha, 20 DAA): 13%
- pest or weed control at 105 g/ha ([4]; 504 h, 105 g ai/ha, 21 DAA): 0%
- pest or weed control at 210 g/ha ([4]; 504 h, 210 g ai/ha, 21 DAA): 0%
- pest or weed control at 420 g/ha ([4]; 504 h, 420 g ai/ha, 21 DAA): 10%
- pest or weed control at 840 g/ha ([4]; 504 h, 840 g ai/ha, 21 DAA): 13%
- Visual Weed Control (%) Obs [5]: 0%
- Visual Weed Control (%) Obs [6]: 10%

Structure (SMILES): CCNc1nc(NCC)nc(SC)n1 [Simetryne, N,N′-diethyl-6-(methylthio)-1,3,5-triazine-2,4-diamine, reference compound]
- Visual Weed Control (%) Obs ([7]; 112.5 g ai/ha): 0%
- Visual Weed Control (%) Obs ([7]; 225 g ai/ha): 0%
- Visual Weed Control (%) Obs ([7]; 450 g ai/ha): 30%
- Visual Weed Control (%) Obs ([8]; 112.5 g ai/ha): 45%
- Visual Weed Control (%) Obs ([8]; 225 g ai/ha): 90%
- Visual Weed Control (%) Obs ([3]; 112.5 g ai/ha, 19 DAA): 0%
- Visual Weed Control (%) Obs ([3]; 225 g ai/ha, 19 DAA): 10%
- Visual Weed Control (%) Obs [9]: 40%
- Visual Weed Control (%) Obs ([10]; 112.5 g ai/ha): 0%
- Visual Weed Control (%) Obs ([10]; 225 g ai/ha): 0%
- Visual Weed Control (%) Obs ([10]; 450 g ai/ha): 0%
- Visual Weed Control (%) Obs [11]: 45%
